Among the data in PubChem BioAssay (NCI) are TGI and GI50 values, retold here.

The structures appear in SMILES notation.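 Protocol summary: plate cells (96-well), add compound at 5 concentrations, incubate 48 h, interpolate endpoints linearly. The concentration for 50% growth inhibition is given as GI50. At the TGI there is no net growth.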

Some test systems named below: SF-539 CNS; KM12 colon; NCI-H522 lung; SR leukemia; NCI-H23 lung; MALME-3M melanoma; UACC-257 melanoma; SK-MEL-5 melanoma; A498 renal; SK-OV-3 ovarian.
Common to all, as to experiment: NCI-60 cell line screen, 48 h

Consider `CCSc1nc(COC(=O)NC)c(COC(=O)NC)n1C`, for which the TGI is > 100 µM in the assay with SF-539 CNS; > 100 µM in the assay on KM12 colon; > 95.4 µM in the assay with NCI-H522 lung; > 100 µM in the assay with SR leukemia; > 100 µM in the assay on NCI-H23 lung; > 100 µM in the assay with MALME-3M melanoma. In addition, the TGI in the assay with UACC-257 melanoma was > 100 µM; with SK-MEL-5 melanoma it was > 100 µM; with A498 renal, > 82 µM; in the assay on SK-OV-3 ovarian it was > 95 µM.
On to `O=C1CC2C(=O)N(Cc3ccccc3)C1C(S(=O)(=O)c1ccccc1)C2S(=O)(=O)c1ccccc1` (stereo not given), for which the TGI in the assay on SF-539 CNS was 4.18 µM; in the assay with KM12 colon it was 29.7 µM; with NCI-H522 lung, 1.38 µM; with SR leukemia, 10.5 µM; in the assay with NCI-H23 lung it was 10.7 µM; with MALME-3M melanoma, 3.87 µM. Also, the TGI with UACC-257 melanoma was 3.25 µM; in the assay with SK-MEL-5 melanoma it was 29.2 µM; in the assay with A498 renal, 32.2 µM; in the assay on SK-OV-3 ovarian, 31.5 µM.
For the compound `Fc1ccc(Nc2nc(NCCNc3ccnc4cc(Cl)ccc34)nc(N3CCOCC3)n2)cc1`, the GI50 with SF-539 CNS is 3.79 µM; with KM12 colon, 5.44 µM; in the assay with NCI-H522 lung, 4.25 µM; in the assay on SR leukemia it was 2.44 µM; with NCI-H23 lung, 14.6 µM; with MALME-3M melanoma it was 2.76 µM. Moreover, the GI50 is 1.9 µM with UACC-257 melanoma, 2.15 µM in the assay on SK-MEL-5 melanoma, 1.48 µM with A498 renal and 11.9 µM in the assay on SK-OV-3 ovarian. Moreover, the TGI with SF-539 CNS worked out at 15.2 µM; in the assay on KM12 colon, 18.7 µM; in the assay with NCI-H522 lung it was 15.3 µM; in the assay with SR leukemia it was 7.6 µM; in the assay on NCI-H23 lung it was 30.2 µM; with MALME-3M melanoma, 4.52 µM. For the same compound, the TGI is 3.65 µM with UACC-257 melanoma, 4.62 µM with SK-MEL-5 melanoma, 8.47 µM in the assay on A498 renal and 24.6 µM in the assay with SK-OV-3 ovarian.
Turning to `COC(=O)[C@]1(C)CCC[C@@]2(C)C1CCC1=C[C@@]3(C(C)C)CC[C@]12OO3` (stereo not given in full), the TGI in the assay with SF-539 CNS is 47.5 µM; with KM12 colon, 66.5 µM; in the assay on NCI-H522 lung, 35.4 µM; with SR leukemia it was 40.7 µM; in the assay on NCI-H23 lung, > 100 µM; in the assay on MALME-3M melanoma, > 100 µM. The TGI in the assay with UACC-257 melanoma was > 100 µM; in the assay with SK-MEL-5 melanoma, 33.3 µM; in the assay with A498 renal it was 67 µM; with SK-OV-3 ovarian it was > 100 µM.
In the case of `Clc1ccc(CN2COc3c(cc(Cl)c4cccnc34)C2)cc1`, the TGI turned out to be 4.92 µM in the assay with SF-539 CNS; 6.32 µM in the assay on KM12 colon; 3.12 µM in the assay on NCI-H522 lung; 6.88 µM in the assay on SR leukemia; 6.8 µM in the assay with NCI-H23 lung; 5.74 µM in the assay with MALME-3M melanoma. Further, the TGI amounted to 9.13 µM in the assay with UACC-257 melanoma, 8.92 µM in the assay with SK-MEL-5 melanoma, 24.8 µM in the assay with A498 renal and 13.3 µM in the assay on SK-OV-3 ovarian.
Turning to `C[C@H](CS(C)(=O)=O)Nc1ncc2cc(Oc3ccc(F)cc3F)c(=O)n(C)c2n1`, the GI50 in the assay on SF-539 CNS, with KM12 colon, with NCI-H522 lung, in the assay on SR leukemia, in the assay with NCI-H23 lung and in the assay on MALME-3M melanoma was > 25 µM each time. Moreover, the GI50 in the assay with UACC-257 melanoma, with SK-MEL-5 melanoma, with A498 renal and in the assay with SK-OV-3 ovarian was > 25 µM throughout. Moreover, the TGI in the assay on SF-539 CNS, in the assay with KM12 colon, in the assay on NCI-H522 lung, in the assay with SR leukemia, in the assay on NCI-H23 lung and in the assay on MALME-3M melanoma was > 25 µM throughout. For the same compound, the TGI in the assay on UACC-257 melanoma, in the assay on SK-MEL-5 melanoma, in the assay on A498 renal and with SK-OV-3 ovarian was > 25 µM each time.
Regarding `COc1ccc2c(c1)nc(N)c1c3cccnc3cn21`, the GI50 in the assay with SF-539 CNS was 0.0432 µM; in the assay with KM12 colon, 0.0473 µM; in the assay with NCI-H522 lung it was 0.0411 µM; with SR leukemia, 0.0339 µM; in the assay with NCI-H23 lung, 0.345 µM; in the assay on MALME-3M melanoma, 0.153 µM. Also, the GI50 is 0.064 µM with UACC-257 melanoma, 0.0322 µM with SK-MEL-5 melanoma, 0.0339 µM in the assay with A498 renal and 0.0508 µM with SK-OV-3 ovarian. In addition, the TGI in the assay with SF-539 CNS was 1.09 µM; in the assay with KM12 colon it was > 41.2 µM; in the assay with NCI-H522 lung, 3.45 µM; with SR leukemia, 22.4 µM; in the assay on NCI-H23 lung, 50 µM; in the assay on MALME-3M melanoma, 25.7 µM. Also, the TGI was 26.7 µM in the assay with UACC-257 melanoma, 0.836 µM with SK-MEL-5 melanoma, 3.04 µM in the assay on A498 renal and > 79.3 µM with SK-OV-3 ovarian.
As for `CC(C)OC(=O)c1ccc2[nH]c(O)c(C(=Nc3ccc(N(C)C(=O)CN4CCN(C)CC4)cc3)c3ccccc3)c2c1`, the GI50 with SF-539 CNS is 0.318 µM; in the assay on KM12 colon it was 0.0251 µM; with NCI-H522 lung, 1.22 µM; in the assay with SR leukemia, 0.0443 µM; with NCI-H23 lung, 0.583 µM; with MALME-3M melanoma it was 0.859 µM. Besides, the GI50 with UACC-257 melanoma is 1.54 µM; in the assay on SK-MEL-5 melanoma, 0.541 µM; in the assay on A498 renal, 0.188 µM; with SK-OV-3 ovarian, 0.308 µM. For the same compound, the TGI turned out to be 1.16 µM in the assay on SF-539 CNS; 1.56 µM with KM12 colon; 3.02 µM with NCI-H522 lung; 0.721 µM with SR leukemia; 2.42 µM with NCI-H23 lung; 2.29 µM in the assay on MALME-3M melanoma. Also, the TGI stood at 3.57 µM in the assay on UACC-257 melanoma, 1.8 µM in the assay with SK-MEL-5 melanoma, 1 µM in the assay with A498 renal and 1.34 µM with SK-OV-3 ovarian.
As for `Fc1ccc(Nc2nccc(-c3c(-c4ccc(C(F)(F)F)cc4)nn4ncccc34)n2)cc1F`, the GI50 with SF-539 CNS, in the assay with KM12 colon, in the assay with NCI-H522 lung, with SR leukemia, in the assay with NCI-H23 lung and in the assay on MALME-3M melanoma was > 25 µM in each case. Also, the GI50 with UACC-257 melanoma, with SK-MEL-5 melanoma, in the assay on A498 renal and in the assay with SK-OV-3 ovarian was > 25 µM throughout. The TGI with SF-539 CNS, with KM12 colon, in the assay with NCI-H522 lung, in the assay with SR leukemia, in the assay on NCI-H23 lung and with MALME-3M melanoma was > 25 µM each time. In addition, the TGI in the assay on UACC-257 melanoma, with SK-MEL-5 melanoma, in the assay with A498 renal and in the assay on SK-OV-3 ovarian was > 25 µM each time.
